Laboratory results taken from PubChem BioAssay (NCI).
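All cell lines were grown in 96-well plates and treated with compound for 48 hours. Definition used: TGI = concentration required for complete inhibition of growth.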

What was measured:
Test in all cases: NCI-60 cell line screen, 48 h
786-0 renal = tested on: 786-0 renal
A498 renal = tested on: A498 renal
A549 NSCLC = tested on: A549 NSCLC
ACHN renal = tested on: ACHN renal
BT-549 breast = tested on: BT-549 breast
CAKI-1 renal = tested on: CAKI-1 renal
CCRF-CEM leukemia = tested on: CCRF-CEM leukemia
COLO 205 colon = tested on: COLO 205 colon
DU-145 prostate = tested on: DU-145 prostate
EKVX NSCLC = tested on: EKVX NSCLC
HCC-2998 colon = tested on: HCC-2998 colon
HCT-116 colon = tested on: HCT-116 colon
HCT-15 colon = tested on: HCT-15 colon
HL-60(TB) leukemia = tested on: HL-60(TB) leukemia
HOP-62 NSCLC = tested on: HOP-62 NSCLC
HOP-92 NSCLC = tested on: HOP-92 NSCLC
HS 578T breast = tested on: HS 578T breast
HT29 colon = tested on: HT29 colon
IGROV1 ovarian = tested on: IGROV1 ovarian
K-562 leukemia = tested on: K-562 leukemia
KM12 colon = tested on: KM12 colon
M14 melanoma = tested on: M14 melanoma
MALME-3M melanoma = tested on: MALME-3M melanoma
MCF7 breast = tested on: MCF7 breast
MDA-MB-231 breast = tested on: MDA-MB-231 breast
MDA-MB-435 = tested on: MDA-MB-435
MDA-N = tested on: MDA-N
MOLT-4 leukemia = tested on: MOLT-4 leukemia
NCI-H226 lung = tested on: NCI-H226 lung
NCI-H23 lung = tested on: NCI-H23 lung
NCI-H460 lung = tested on: NCI-H460 lung
NCI/ADR-RES ovarian = tested on: NCI/ADR-RES ovarian
OVCAR-3 ovarian = tested on: OVCAR-3 ovarian
OVCAR-4 ovarian = tested on: OVCAR-4 ovarian
OVCAR-5 ovarian = tested on: OVCAR-5 ovarian
OVCAR-8 ovarian = tested on: OVCAR-8 ovarian
PC-3 prostate = tested on: PC-3 prostate
RPMI-8226 leukemia = tested on: RPMI-8226 leukemia
RXF 393 renal = tested on: RXF 393 renal
SF-268 CNS = tested on: SF-268 CNS
SF-295 CNS = tested on: SF-295 CNS
SK-MEL-2 melanoma = tested on: SK-MEL-2 melanoma
SK-MEL-28 melanoma = tested on: SK-MEL-28 melanoma
SK-MEL-5 melanoma = tested on: SK-MEL-5 melanoma
SK-OV-3 ovarian = tested on: SK-OV-3 ovarian
SN12C renal = tested on: SN12C renal
SNB-19 CNS = tested on: SNB-19 CNS
SNB-75 CNS = tested on: SNB-75 CNS
SW-620 colon = tested on: SW-620 colon
T-47D breast = tested on: T-47D breast
TK-10 renal = tested on: TK-10 renal
U251 CNS = tested on: U251 CNS
UACC-257 melanoma = tested on: UACC-257 melanoma
UACC-62 melanoma = tested on: UACC-62 melanoma
UO-31 renal = tested on: UO-31 renal
LOX IMVI melanoma = tested on: LOX IMVI melanoma
SF-539 CNS = tested on: SF-539 CNS

Measured: TGI

COC(=O)[C@H](Cc1ccccc1)NC(=O)c1ccc(CNC(=O)/C=C/c2ccc(-c3ccccc3)cc2)cc1
37.3 µM: U251 CNS
94.5 µM: SF-295 CNS
48.3 µM: SNB-75 CNS
45.4 µM: HOP-62 NSCLC
39.1 µM: SNB-19 CNS
54.5 µM: HS 578T breast
97.2 µM: BT-549 breast
40.3 µM: RXF 393 renal
76.7 µM: MDA-MB-231 breast
> 100 µM: 786-0 renal | A498 renal | A549 NSCLC | ACHN renal | CAKI-1 renal | CCRF-CEM leukemia | COLO 205 colon | DU-145 prostate | EKVX NSCLC | HCC-2998 colon | HCT-116 colon | HCT-15 colon | HL-60(TB) leukemia | HOP-92 NSCLC | HT29 colon | IGROV1 ovarian | K-562 leukemia | KM12 colon | M14 melanoma | MALME-3M melanoma | MCF7 breast | MDA-MB-435 | MDA-N | MOLT-4 leukemia | NCI-H226 lung | NCI-H23 lung | NCI-H460 lung | NCI/ADR-RES ovarian | OVCAR-3 ovarian | OVCAR-4 ovarian | OVCAR-5 ovarian | OVCAR-8 ovarian | PC-3 prostate | RPMI-8226 leukemia | SF-268 CNS | SK-MEL-2 melanoma | SK-MEL-28 melanoma | SK-MEL-5 melanoma | SK-OV-3 ovarian | SN12C renal | SW-620 colon | T-47D breast | TK-10 renal | UACC-257 melanoma | UACC-62 melanoma | UO-31 renal

COC(=O)c1cn(CCCC(=O)O)nn1
> 100 µM: 786-0 renal | A549 NSCLC | ACHN renal | BT-549 breast | CAKI-1 renal | CCRF-CEM leukemia | COLO 205 colon | DU-145 prostate | EKVX NSCLC | HCC-2998 colon | HCT-116 colon | HCT-15 colon | HOP-62 NSCLC | HOP-92 NSCLC | HS 578T breast | HT29 colon | IGROV1 ovarian | KM12 colon | LOX IMVI melanoma | MALME-3M melanoma | MCF7 breast | MDA-MB-231 breast | MDA-MB-435 | MDA-N | MOLT-4 leukemia | NCI-H226 lung | NCI-H23 lung | NCI-H460 lung | NCI/ADR-RES ovarian | OVCAR-4 ovarian | OVCAR-8 ovarian | PC-3 prostate | RXF 393 renal | SF-268 CNS | SF-295 CNS | SF-539 CNS | SK-MEL-2 melanoma | SK-MEL-28 melanoma | SK-MEL-5 melanoma | SN12C renal | SNB-19 CNS | SNB-75 CNS | SW-620 colon | T-47D breast | TK-10 renal | U251 CNS | UACC-257 melanoma | UACC-62 melanoma | UO-31 renal
